Assay [1] has as its system Male Swiss Webster mice. Kind of assay: Tail suspension test. Format: in vivo. To be noted: for decrease in immobility time: cotreated 30 minutes prior to the test. The text has this:
Compound 1, [drawing 11] was used to exemplify the effectiveness of compounds of the present invention in the tail suspension test. While not a direct model of depression, the tail suspension test is an assay that can evaluate antidepressant-like effects of drugs. […] Specifically, they decrease the amount of time the mice spend immobile after being hung upside down by their tails during the test. It is impossible to determine if a mouse is indeed depressed. However, the fact that clinically effective antidepressants reduce immobility lends predictive validity to the model. Animals
Male Swiss Webster mice (Charles River) weighing 25-35 g were used throughout this study. They were housed in groups of five per cage in an AALAC-accredited facility that was maintained on a 12-h light dark cycle (lights on at 0600 h) and had free access to food and water. Experimental groups consisted of 12 mice, randomly assigned to treatment groups. All experiments were performed between 9:00 AM and noon in accordance to the Guide for the Care and Use of Laboratory Animals as adopted and promulgated by the National Institutes of Health (Pub. 85-23, 1985).
Solutions of Compound 1 and paroxetine were freshly prepared; each dissolved in distilled water. All drugs were injected i.p. at a volume of 10 ml/kg body weight. Combination treatments were cotreated, 30 minutes prior to the test.
The procedure followed in this study was a variant of the one originally described by Steru et al. (1985). 30 minutes following treatment, the mice were suspended upside down by the tail using adhesive laboratory tape (VWR International), to a flat metal bar connected to a strain gauge within a tail suspension chamber (Med Associates). The time spent immobile during a 6-minute test session was automatically recorded. 8 mice were simultaneously tested within separate chambers. Data collected were expressed as a mean of immobility time and statistical analysis was performed using a one-way ANOVA with least significant difference (LSD) post-hoc test.

For assay [2], the system named is Male Swiss Webster mice. To be noted: general statement on clinically effective drugs; cited from earlier work.

Here are results for three compounds from patent publication US20070225279A1, “Therapeutic combinations for the treatment of depression” (Wyeth, priority 2006, published 2007).

On to `c1cc2c3c(c1)[C@H]1CCC[C@H]1N3CCNC2` [Compound 1], for which the “decrease in immobility time” value in the assay on Male Swiss Webster mice [1] (1 mg/kg Compound 1 in combination with 30 mg/kg paroxetine, i.p.) is 24%; in the assay with Male Swiss Webster mice [1] (3 mg/kg Compound 1 in combination with 30 mg/kg paroxetine, i.p.), 35%. Moreover, the “antidepressant-like effect (immobility time) in tail suspension test” value with Male Swiss Webster mice [1] (Compound 1 alone, 1 or 3 mg/kg i.p., 30 minutes prior to the test, 6-minute session) is on record as “Neither dose of Compound 1 (1 or 3 mg/kg) produced an antidepressant-like effect alone”.
With `Fc1ccc([C@@H]2CCNC[C@H]2COc2ccc3c(c2)OCO3)cc1` (relative stereo) [paroxetine, trans-(−)-3-[(1,3-benzodioxol-5-yloxy)methyl]-4-(4-fluorophenyl)piperidine, reference compound], the decrease in immobility with Male Swiss Webster mice [1] (30 mg/kg paroxetine alone, i.p., 30 minutes prior to the test, ns) is 18%.
With `CNCCC(Oc1ccc(C(F)(F)F)cc1)c1ccccc1` (centres unmarked) [fluoxetine, N-methyl-3-(p-trifluoromethylphenoxy)-3-phenylpropylamine], the “effectiveness in tail suspension assay (decrease of time spent immobile)” value with Male Swiss Webster mice [2] was “effective in this assay”.
